Assay results: BindingDB's records for doi:10.1007/s002100000340 (University of Illinois At Chicago, 2001)

Experiments:
Adenosine receptor A3 = biological target: T1, Adenosine receptor A3 (Gallus gallus, UniProt A0A8V1ACC1)
T1 sequence (A0A8V1ACC1 whole entry): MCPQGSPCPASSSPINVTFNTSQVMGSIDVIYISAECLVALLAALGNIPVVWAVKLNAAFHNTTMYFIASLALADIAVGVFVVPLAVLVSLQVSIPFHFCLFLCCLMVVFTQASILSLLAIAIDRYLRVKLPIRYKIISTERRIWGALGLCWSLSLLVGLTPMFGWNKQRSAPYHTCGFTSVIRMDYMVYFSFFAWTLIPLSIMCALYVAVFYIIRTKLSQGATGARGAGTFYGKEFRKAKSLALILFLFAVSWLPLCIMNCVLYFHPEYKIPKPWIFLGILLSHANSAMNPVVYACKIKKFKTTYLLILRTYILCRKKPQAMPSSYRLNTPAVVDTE

Adenosine receptor A1 = biological target: T2, Adenosine receptor A1 (Gallus gallus, UniProt P49892)
T2 sequence (P49892 whole entry): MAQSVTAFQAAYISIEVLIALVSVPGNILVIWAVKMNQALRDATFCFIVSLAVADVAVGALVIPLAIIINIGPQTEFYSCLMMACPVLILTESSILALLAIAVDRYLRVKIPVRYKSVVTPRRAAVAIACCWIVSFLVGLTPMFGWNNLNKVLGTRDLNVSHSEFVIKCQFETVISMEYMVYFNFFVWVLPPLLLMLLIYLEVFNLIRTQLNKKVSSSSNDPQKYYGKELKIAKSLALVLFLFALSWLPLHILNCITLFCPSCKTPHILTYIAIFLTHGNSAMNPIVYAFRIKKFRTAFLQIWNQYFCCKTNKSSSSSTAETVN

Compound	Ki (Adenosine receptor A3)	Ki (Adenosine receptor A1)
CCCn1c(=O)c2[nH]c(-c3ccc(C=CC(=O)O)cc3)nc2n(CCC)c1=O [NSC_129447]	36.6 nM	167 nM
CCNC(=O)[C@H]1O[C@@H](n2cnc3c(N)ncnc32)[C@H](O)[C@@H]1O	37.1 nM	23.4 nM
OC[C@H]1O[C@@H](n2cnc3c(NC4CCCCC4)ncnc32)[C@H](O)[C@@H]1O [CHA]	17.1 nM	1.66 nM
Cc1ccc(-c2oc3ccc(Cl)cc3c(=O)c2Cl)c(OC(C)C)c1	3310 nM	–
CC(C=C[C@@]1(O)C(C)=CC(=O)CC1(C)C)=CC(=O)O [CAS_14375-45-2]	56.1 nM	–
Nc1ncnc2c1ncn2[C@@H]1O[C@H](C(=O)NCc2ccccc2)[C@@H](O)[C@H]1O [B-NECA]	6.79 nM	6.83 nM
CNC(=O)[C@H]1O[C@@H](n2cnc3c(NCc4cccc(I)c4)nc(Cl)nc32)[C@H](O)[C@@H]1O [2-Cl-IB-MECA]	–	74 nM
OCC1OC(n2cnc3c(NC4CCCC4)nc(Cl)nc32)C(O)C1O (stereo unspecified) [2-(2-Chloro-6-cyclopentylamino-purin-9-yl)-5-hydroxymethyl-tetrahydro-furan-3,4-diol]	6.82 nM	4.01 nM
CNC(=O)C1OC(n2cnc3c(NCc4cccc(I)c4)ncnc32)C(O)C1O (stereo unspecified) [3,4-dihydroxy-5-(6-{[(3-iodophenyl)methyl]amino}-9H-purin-9-yl)-N-methyloxolane-2-carboxamide]	2.8 nM	16.3 nM
CCOC(=O)C1=C(c2ccccc2)N=C(C)C(C(=O)OCC)C1/C=C/c1ccccc1 (stereo unspecified)	990 nM	3430 nM
CCCn1c(=O)c2nc[nH]c2n(CCC)c1=O	53.3 nM	11.2 nM
CC(Cc1ccccc1)Nc1ncnc2c1ncn2C1OC(CO)C(O)C1O (stereo unspecified) [R-N6-(2-phenylisopropyl) adenosine]	1.13 nM	0.72 nM
